Where two headings read alike, the source gives them in different places.
Assays:
NaV1.6 = NaV1.6 (Homo sapiens (Human), UniProt Q9UQD0); test: Sodium Influx Assay (Flux) NaV1.6; assay type: cell-based; details: Trex HEK293 cells, ANG2 dye, inhibition of sodium ion influx
NaV1.1 = NaV1.1 (Homo sapiens (Human), UniProt P35498); test: Sodium Influx Assay (Flux) NaV1.1; assay type: cell-based; details: Trex HEK293 cells, ANG2 dye, inhibition of sodium ion influx
NaV1.5 [1] = molecular target: T1, NaV1.5 (Homo sapiens (Human), UniProt Q14524)
T1 sequence (Q14524 other isoform, or with tags, fused parts or gaps): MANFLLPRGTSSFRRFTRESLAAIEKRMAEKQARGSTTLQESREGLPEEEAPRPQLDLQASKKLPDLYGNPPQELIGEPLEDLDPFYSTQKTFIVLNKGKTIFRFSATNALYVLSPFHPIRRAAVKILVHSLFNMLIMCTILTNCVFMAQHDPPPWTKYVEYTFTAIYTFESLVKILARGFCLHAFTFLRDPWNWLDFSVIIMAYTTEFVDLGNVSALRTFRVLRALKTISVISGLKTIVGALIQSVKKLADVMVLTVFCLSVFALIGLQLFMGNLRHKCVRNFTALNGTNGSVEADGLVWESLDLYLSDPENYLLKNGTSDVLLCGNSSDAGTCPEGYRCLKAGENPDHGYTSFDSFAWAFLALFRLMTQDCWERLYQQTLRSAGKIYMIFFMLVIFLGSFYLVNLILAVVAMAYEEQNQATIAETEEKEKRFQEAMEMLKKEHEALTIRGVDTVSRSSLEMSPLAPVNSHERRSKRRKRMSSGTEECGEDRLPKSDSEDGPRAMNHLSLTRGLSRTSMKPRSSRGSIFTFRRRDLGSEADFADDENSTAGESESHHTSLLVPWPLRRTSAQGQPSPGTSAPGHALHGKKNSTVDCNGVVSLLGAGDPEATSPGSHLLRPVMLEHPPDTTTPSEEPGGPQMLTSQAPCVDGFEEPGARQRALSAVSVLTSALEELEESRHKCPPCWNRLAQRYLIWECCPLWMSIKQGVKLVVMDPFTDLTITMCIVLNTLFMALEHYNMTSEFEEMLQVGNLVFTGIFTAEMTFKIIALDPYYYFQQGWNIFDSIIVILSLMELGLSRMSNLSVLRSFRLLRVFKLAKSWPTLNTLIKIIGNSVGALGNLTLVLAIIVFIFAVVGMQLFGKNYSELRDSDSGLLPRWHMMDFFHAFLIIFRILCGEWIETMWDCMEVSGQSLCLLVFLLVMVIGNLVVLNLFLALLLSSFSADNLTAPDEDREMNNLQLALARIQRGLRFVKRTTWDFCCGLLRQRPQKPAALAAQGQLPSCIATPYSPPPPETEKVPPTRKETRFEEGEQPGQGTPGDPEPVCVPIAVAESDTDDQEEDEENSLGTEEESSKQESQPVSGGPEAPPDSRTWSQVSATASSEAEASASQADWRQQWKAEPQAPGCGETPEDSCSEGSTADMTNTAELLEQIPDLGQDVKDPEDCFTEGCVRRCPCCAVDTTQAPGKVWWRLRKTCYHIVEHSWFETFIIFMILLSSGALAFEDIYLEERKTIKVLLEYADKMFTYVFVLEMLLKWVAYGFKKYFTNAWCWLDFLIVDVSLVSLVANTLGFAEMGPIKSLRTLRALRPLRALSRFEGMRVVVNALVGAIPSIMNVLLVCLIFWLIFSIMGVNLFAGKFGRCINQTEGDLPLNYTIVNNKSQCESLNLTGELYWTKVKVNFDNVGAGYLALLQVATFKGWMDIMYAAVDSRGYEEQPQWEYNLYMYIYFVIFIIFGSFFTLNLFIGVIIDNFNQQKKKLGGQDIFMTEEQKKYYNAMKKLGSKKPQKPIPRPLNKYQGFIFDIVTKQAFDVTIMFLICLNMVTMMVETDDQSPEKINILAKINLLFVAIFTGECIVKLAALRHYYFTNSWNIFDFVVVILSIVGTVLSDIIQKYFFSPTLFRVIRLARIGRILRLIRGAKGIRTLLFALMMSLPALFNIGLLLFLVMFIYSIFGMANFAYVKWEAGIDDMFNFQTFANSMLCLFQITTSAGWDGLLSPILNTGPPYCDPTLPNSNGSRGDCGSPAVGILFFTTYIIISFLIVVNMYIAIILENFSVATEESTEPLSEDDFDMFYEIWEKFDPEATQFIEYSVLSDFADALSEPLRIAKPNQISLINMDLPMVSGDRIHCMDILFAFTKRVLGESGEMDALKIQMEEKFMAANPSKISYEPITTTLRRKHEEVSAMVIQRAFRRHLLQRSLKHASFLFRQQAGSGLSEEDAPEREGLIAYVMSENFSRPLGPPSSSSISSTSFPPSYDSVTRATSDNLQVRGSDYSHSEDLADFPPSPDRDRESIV

NaV1.5 [2] = molecular target: T1, NaV1.5; test: Sodium Influx Assay (Flux) NaV1.5
[3] = read-out: Flux NaV1.5 IC50, Trex HEK293 cells, ANG2 dye, inhibition of sodium ion influx

Compound | IC50 (NaV1.6) | IC50 (NaV1.1) | IC50 (NaV1.5 [1]) | IC50 (NaV1.5 [2]; [3]) | IC50 (NaV1.5 [2])
Cc1c(NCc2c(F)cccc2CN2C3CCC2CC3)ccc(S(=O)(=O)Nc2cscn2)c1F [Example 7, 4-((2-((7-azabicyclo[2.2.1]heptan-7-yl)methyl)-6-fluorobenzyl)amino)-2-fluoro-3-methyl-N-(thiazol-4-yl)benzenesulfonamide 2,2,2-trifluoroacetate] | 181 nM | 7.44 µM | 21.3 µM |  | 
O=S(=O)(Nc1ccsn1)c1ccc(NCc2c(F)cccc2CN2C3CCC2CC3)c(F)c1F [Example 13, 4-((2-((7-azabicyclo[2.2.1]heptan-7-yl)methyl)-6-fluorobenzyl)amino)-2,3-difluoro-N-(isothiazol-3-yl)benzenesulfonamide 2,2,2-trifluoroacetate] | 270 nM | 23.7 µM | > 30 µM |  | 
O=S(=O)(Nc1cscn1)c1c(F)cc(NCc2c(F)cccc2CN2C3CCC2CC3)cc1F [Example 9, 4-((2-((7-azabicyclo[2.2.1]heptan-7-yl)methyl)-6-fluorobenzyl)amino)-2,6-difluoro-N-(thiazol-4-yl)benzenesulfonamide 2,2,2-trifluoroacetate] | 26 nM | 7.84 µM | 20.4 µM |  | 
COc1ccc(F)c(CNc2cc(F)c(S(=O)(=O)Nc3cscn3)cc2C)c1CN(C)C(C)C [Example 18, 2-fluoro-4-((6-fluoro-2-((isopropyl(methyl)amino)methyl)-3-methoxybenzyl)amino)-5-methyl-N-(thiazol-4-yl)benzenesulfonamide 2,2,2-trifluoroacetate] | 16 nM | > 30 µM |  | 11.8 µM | 
COc1ccc(F)c(CNc2cc(F)c(S(=O)(=O)Nc3cscn3)c(F)c2)c1CN(C)C(C)C [Example 2, 2,6-difluoro-4-((6-fluoro-2-((isopropyl(methyl)amino)methyl)-3-methoxybenzyl)amino)-N-(thiazol-4-yl)benzenesulfonamide] | 27 nM | 27.5 µM |  | 28.3 µM | 
Cc1c(NCc2c(F)cccc2CN2C3CCC2CC3)ccc(S(=O)(=O)Nc2ccon2)c1F [Example 5, 4-((2-((7-azabicyclo[2.2.1]heptan-7-yl)methyl)-6-fluorobenzyl)amino)-2-fluoro-N-(isoxazol-3-yl)-3-methylbenzenesulfonamide 2,2,2-trifluoroacetate] | 617 nM | > 30 µM | > 30 µM |  | 
C[C@@H](c1c(F)ccc(F)c1CNc1cc(F)c(S(=O)(=O)Nc2cscn2)c(F)c1)N1C2CCC1CC2 (single isomer, unassigned) [Example 15a] | 530 nM | > 30 µM |  |  | > 30 µM
Cc1c(NCc2c(F)cccc2CN2C3CCC2CC3)cc(F)c(S(=O)(=O)Nc2ccon2)c1F [Example 4, 4-((2-((7-azabicyclo[2.2.1]heptan-7-yl)methyl)-6-fluorobenzyl)amino)-2,6-difluoro-N-(isoxazol-3-yl)-3-methylbenzenesulfonamide] | 47 nM | 17 µM | > 30 µM |  | 
CC(c1c(F)ccc(F)c1CNc1cc(F)c(S(=O)(=O)Nc2cscn2)c(F)c1)N1C2CCC1CC2 (stereo not drawn) [Example 14, 4-((2-(1-(7-azabicyclo[2.2.1]heptan-7-yl)ethyl)-3,6-difluorobenzyl)amino)-2,6-difluoro-N-(thiazol-4-yl)benzenesulfonamide 2,2,2-trifluoroacetate] | 653 nM | > 30 µM | 12.8 µM |  | 
O=S(=O)(Nc1cscn1)c1ccc(NCc2c(F)cccc2CN2C3CCC2CC3)c(F)c1F [Example 3, 4-((2-((7-azabicyclo[2.2.1]heptan-7-yl)methyl)-6-fluorobenzyl)amino)-2,3-difluoro-N-(thiazol-4-yl)benzenesulfonamide] | 142 nM | > 30 µM | > 30 µM |  | 
C[C@H](c1c(F)ccc(F)c1CNc1cc(F)c(S(=O)(=O)Nc2cscn2)c(F)c1)N1C2CCC1CC2 (single isomer, unassigned) [Example 15b] | 821 nM | > 30 µM |  |  | > 30 µM
COc1ccc(F)c(CNc2cc(F)c(S(=O)(=O)Nc3cscn3)cc2Cl)c1CN(C)C(C)C [Example 17, 5-chloro-2-fluoro-4-((6-fluoro-2-((isopropyl(methyl)amino)methyl)-3-methoxybenzyl)amino)-N-(thiazol-4-yl)benzenesulfonamide 2,2,2-trifluoroacetate] | 12 nM | > 30 µM |  | 16.3 µM | 
COc1ccc(F)c(CNc2ccc(S(=O)(=O)Nc3cscn3)c(F)c2F)c1CN(C)C(C)C [Example 16, 2,3-difluoro-4-((6-fluoro-2-((isopropyl(methyl)amino)methyl)-3-methoxybenzyl)amino)-N-(thiazol-4-yl)benzenesulfonamide] | 31 nM | > 30 µM |  | 9.46 µM | 
COc1ccc(F)c(CNc2ccc(S(=O)(=O)Nc3cscn3)c(F)c2F)c1CN1C2CCC1CC2 [Example 12, 4-((2-((7-azabicyclo[2.2.1]heptan-7-yl)methyl)-6-fluoro-3-methoxybenzyl)amino)-2,3-difluoro-N-(thiazol-4-yl)benzenesulfonamide 2,2,2-trifluoroacetate] | 54 nM | > 30 µM | > 30 µM |  | 
O=S(=O)(Nc1cscn1)c1ccc(NCc2c(F)cccc2CN2C3CCC2CC3)c(Cl)c1F [Example 6, 4-((2-((7-azabicyclo[2.2.1]heptan-7-yl)methyl)-6-fluorobenzyl)amino)-3-chloro-2-fluoro-N-(thiazol-4-yl)benzenesulfonamide 2,2,2-trifluoroacetate] | 95 nM | 5.23 µM | 15.3 µM |  | 
CC(C)Oc1ccc(F)c(CNc2cc(F)c(S(=O)(=O)Nc3cscn3)c(F)c2)c1CN(C)C(C)C [Example 8, 2,6-difluoro-4-((6-fluoro-3-isopropoxy-2-((isopropyl(methyl)amino)methyl)benzyl)amino)-N-(thiazol-4-yl)benzenesulfonamide] | 26 nM | 28 µM |  | 11.1 µM | 
O=S(=O)(Nc1cscn1)c1c(F)cc(NCc2c(F)ccc(F)c2CN2C3CCC2CC3)cc1F [Example 10, 4-((2-((7-azabicyclo[2.2.1]heptan-7-yl)methyl)-3,6-difluorobenzyl)amino)-2,6-difluoro-N-(thiazol-4-yl)benzenesulfonamide] | 28 nM | 7.93 µM | 25.4 µM |  | 
O=S(=O)(Nc1ccsn1)c1c(F)cc(NCc2c(F)cccc2CN2C3CCC2CC3)cc1F [Example 1, 4-((2-((7-azabicyclo[2.2.1]heptan-7-yl)methyl)-6-fluorobenzyl)amino)-2,6-difluoro-N-(isothiazol-3-yl)benzenesulfonamide] | 15 nM | 9.6 µM | > 30 µM |  | 
COc1ccc(F)c(CNc2cc(F)c(S(=O)(=O)Nc3cscn3)c(F)c2)c1CN1C2CCC1CC2 [Example 11, 4-((2-((7-azabicyclo[2.2.1]heptan-7-yl)methyl)-6-fluoro-3-methoxybenzyl)amino)-2,6-difluoro-N-(thiazol-4-yl)benzenesulfonamide 2,2,2-trifluoroacetate] | 2 nM | 5.91 µM | 27.5 µM |  | 

— patent US10745392B2, “Benzenesulfonamide compounds and their use as therapeutic agents” (Xenon Pharmaceuticals Inc., priority 2018, dated 2020)
